Laboratory results as given in ChEMBL document CHEMBL1127260, “EMD 61 753 as a favourable representative of structurally novel arylacetamido-type K opiate receptor agonists” (Bioorg Med Chem Lett, 1994).

Assays:
[1] = target: Kappa-type opioid receptor (Cavia porcellus, UniProt P41144); assay: Affinity at K opioid receptor on membranes prepared from guinea pig cerebellum by [3H]- 69593 displacement.; format: tissue-based
Mu-type opioid receptor = Mu-type opioid receptor (Rattus norvegicus, UniProt P33535); assay: Affinity to mu opioid receptor determined in the presence of [3H]- PL 017 using membranes prepared from rat cerebrum
Chain of Mu-type opioid receptor (P33535 whole entry): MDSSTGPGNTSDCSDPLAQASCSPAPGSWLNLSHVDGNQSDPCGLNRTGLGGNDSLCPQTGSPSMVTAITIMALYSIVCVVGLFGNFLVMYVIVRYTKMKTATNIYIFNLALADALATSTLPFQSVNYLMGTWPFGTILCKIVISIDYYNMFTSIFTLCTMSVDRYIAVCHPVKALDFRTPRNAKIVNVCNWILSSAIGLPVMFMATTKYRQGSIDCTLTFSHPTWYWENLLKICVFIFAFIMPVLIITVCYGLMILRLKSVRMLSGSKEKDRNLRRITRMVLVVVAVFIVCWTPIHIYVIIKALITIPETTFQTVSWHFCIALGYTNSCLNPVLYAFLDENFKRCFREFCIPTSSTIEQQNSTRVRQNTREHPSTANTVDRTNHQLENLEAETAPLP

[2] = target: Delta-type opioid receptor (Rattus norvegicus, UniProt P33533); assay: Affinity to delta opioid receptor determined in the presence of [3H]- [D-Pen2,5]enkephalin using membranes prepared from rat cerebrum
Chain of Delta-type opioid receptor (P33533 whole entry): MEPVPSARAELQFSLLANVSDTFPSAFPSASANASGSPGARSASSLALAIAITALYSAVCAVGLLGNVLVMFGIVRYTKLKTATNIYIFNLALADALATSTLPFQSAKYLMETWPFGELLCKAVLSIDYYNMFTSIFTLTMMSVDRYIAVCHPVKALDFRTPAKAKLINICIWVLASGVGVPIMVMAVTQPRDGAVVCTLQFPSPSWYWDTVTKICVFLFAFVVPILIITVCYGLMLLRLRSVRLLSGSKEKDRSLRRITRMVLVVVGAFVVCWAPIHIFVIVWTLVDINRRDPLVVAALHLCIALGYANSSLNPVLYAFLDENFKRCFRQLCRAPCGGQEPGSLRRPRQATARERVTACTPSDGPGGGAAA

Mus musculus [3] = assay: Inhibitory dose (sc) in the formalin test in mice at early phase; format: functional; details: read-out: ID50 (the source's name)
Mus musculus [4] = assay: Inhibitory dose (sc) in the formalin test in mice at late phase; format: functional; details: read-out: ID50 (the source's name)

Chain of Kappa-type opioid receptor (P41144 whole entry): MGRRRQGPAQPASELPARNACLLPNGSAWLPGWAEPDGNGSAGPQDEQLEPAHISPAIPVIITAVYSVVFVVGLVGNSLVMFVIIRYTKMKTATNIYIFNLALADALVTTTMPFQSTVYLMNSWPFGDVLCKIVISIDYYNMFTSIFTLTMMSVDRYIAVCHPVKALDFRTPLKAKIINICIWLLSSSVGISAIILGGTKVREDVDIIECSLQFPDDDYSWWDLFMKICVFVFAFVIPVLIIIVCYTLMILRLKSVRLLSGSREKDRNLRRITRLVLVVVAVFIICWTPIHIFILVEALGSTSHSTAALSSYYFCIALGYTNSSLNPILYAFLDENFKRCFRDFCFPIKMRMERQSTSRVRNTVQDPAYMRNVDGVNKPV

Work on `CN(C(=O)C(c1ccccc1)c1ccccc1)[C@H](CN1CC[C@H](O)C1)c1cccc(N)c1` yielded a Ki ([1]; read-out: Ki) of 0.006 µM.
For `CN(C(=O)C1c2ccccc2Oc2ccccc21)[C@H](CN1CC[C@H](O)C1)c1ccccc1`, the Ki ([1]; read-out: Ki) was 0.004 µM, the Ki (Mu-type opioid receptor) was over 0.1 µM and the Ki [2] was over 0.1 µM.
`CN(C(=O)C(c1ccccc1)c1ccccc1)[C@H](CN1CC[C@H](O)C1)c1cccc([N+](=O)[O-])c1.Cl` showed a Ki [1] of 20 nM l-1.
`COc1ccc([C@@H](CN2CC[C@H](O)C2)N(C)C(=O)C(c2ccccc2)c2ccccc2)cc1` showed a Ki ([1]; read-out: Ki) of 0.007 µM.
For `CC(=O)Nc1cccc([C@@H](CN2CC[C@H](O)C2)N(C)C(=O)C(c2ccccc2)c2ccccc2)c1`, the Ki ([1]; read-out: Ki) was 0.006 µM.
With `CN(C(=O)C(c1ccc(F)cc1)c1ccc(F)cc1)[C@H](CN1CC[C@H](O)C1)c1ccccc1` the Ki ([1]; read-out: Ki) was 0.007 µM, the Ki (Mu-type opioid receptor) was over 0.1 µM and the Ki [2] was over 0.1 µM.
In the case of `CN(C(=O)C1c2ccccc2Cc2ccccc21)[C@H](CN1CC[C@H](O)C1)c1ccccc1`, the Ki ([1]; read-out: Ki) is reported as 0.004 µM, the Ki (Mu-type opioid receptor) is reported as over 0.1 µM and the Ki [2] is reported as over 0.1 µM.
`CN(C(=O)C(c1ccc(Cl)cc1)c1ccc(Cl)cc1)[C@H](CN1CC[C@H](O)C1)c1ccccc1` was tested, and the Ki ([1]; read-out: Ki) was 0.005 µM, the Ki (Mu-type opioid receptor) was over 0.1 µM and the Ki [2] was over 0.1 µM.
Compound `CN(C(=O)C(c1cccs1)c1cccs1)[C@H](CN1CC[C@H](O)C1)c1ccccc1` has a Ki ([1]; read-out: Ki) of 0.004 µM, a Ki (Mu-type opioid receptor) of over 0.1 µM and a Ki [2] of over 0.1 µM.
With `CN(C(=O)C1c2ccccc2-c2ccccc21)[C@H](CN1CC[C@H](O)C1)c1ccccc1` the Ki ([1]; read-out: Ki) was 0.006 µM, the Ki (Mu-type opioid receptor) was 0.04 µM and the Ki [2] was 0.06 µM.
`CN(C(=O)C(c1ccccc1)c1ccccc1)[C@H](CN1CC[C@H](O)C1)c1ccc(O)cc1` showed a Ki ([1]; read-out: Ki) of 0.006 µM.
For `CN(C(=O)C1c2ccccc2CCc2ccccc21)[C@H](CN1CC[C@H](O)C1)c1ccccc1.Cl`, the Ki [1] was 20 nM l-1, the Ki (Mu-type opioid receptor) was over 0.1 µM and the Ki [2] was over 0.1 µM.
For `Cc1ccc(C(C(=O)N(C)[C@H](CN2CC[C@H](O)C2)c2ccccc2)c2ccc(C)cc2)cc1.Cl`, the Ki [1] was 20 nM l-1, the Ki (Mu-type opioid receptor) was over 0.1 µM and the Ki [2] was over 0.1 µM.
In the case of `CN(C(=O)C1c2ccccc2Sc2ccccc21)[C@H](CN1CC[C@H](O)C1)c1ccccc1`, the Ki ([1]; read-out: Ki) is reported as 0.01 µM, the Ki (Mu-type opioid receptor) is reported as over 0.1 µM and the Ki [2] is reported as over 0.1 µM.
For `CC(C)[C@@H](CN1CCCC1)N(C)C(=O)Cc1ccc(Cl)c(Cl)c1`, the ED50 (Mus musculus [3]) was 0.04 mg/kg and the ED50 (Mus musculus [4]) was 0.02 mg/kg.
`CN(C(=O)C(c1ccccc1)C1CCCCC1)[C@H](CN1CC[C@H](O)C1)c1ccccc1` (stereo in doubt; form 1) was tested, and the Ki ([1]; read-out: Ki) was 0.01 µM, the Ki (Mu-type opioid receptor) was over 0.1 µM and the Ki [2] was over 0.1 µM.
`CN(C(=O)C(c1ccccc1)C1CCCCC1)[C@H](CN1CC[C@H](O)C1)c1ccccc1` (stereo in doubt; form 2) was tested, and the Ki ([1]; read-out: Ki) was 0.01 µM, the Ki (Mu-type opioid receptor) was over 0.1 µM and the Ki [2] was over 0.1 µM.
Work on `CN(C(=O)C(c1ccccc1)c1ccccc1)[C@H](CN1CC[C@H](O)C1)c1ccccc1.Cl` [ASIMADOLINE HYDROCHLORIDE] yielded an ED50 (Mus musculus [3]) of over 2 mg/kg, an ED50 (Mus musculus [4]) of 0.24 mg/kg and a Ki (Mu-type opioid receptor) of over 0.1 µM. For the same compound, the Ki [2] was over 0.1 µM.
`CN1CC[C@]23c4c5ccc(O)c4O[C@H]2[C@@H](O)C=C[C@H]3[C@H]1C5` [MORPHINE] gave an ED50 (Mus musculus [3]) of 1.7 mg/kg and an ED50 (Mus musculus [4]) of 3.4 mg/kg.
